Source: paper PMC12629158, “Cytotoxic Activity of Opopanax hispidus (Friv.) Griseb.: Characterization of a New Chalcone‐type Compound” (Chemistry & Biodiversity, 2025)
Converted amounts (≈) assume the structure as drawn. “Also recorded” adds a separate entry of the source. Read-outs that look alike come from different tables or passages of the source.

Columns and labels:
[1] = system: A549; assay: MTT cytotoxicity assay, A549; format: cell-based, human; conditions: for antiproliferative effect of isolated compounds (in words): A549 lung cancer cells, tested concentrations 0.5–50 µM; for IC50: Homo sapiens, A549, 48 h, MTT, 48 h, read-out: IC50 ± SEM, A549
Experimental: (§1) Adenocarcinomic human alveolar basal epithelial cell line (A549), human cervical cancer cell line (HeLa), human breast cancer cell line (MCF‐7), human hepatocellular carcinoma cell line (HepG2), and human bronchial epithelial cell line (BEAS‐2B) were used for the cytotoxicity test panel of crude extract. […] Therefore, A549 was used in further activity‐guided fractionation and isolation studies. The cell lines were cultured in Dulbecco's Modified Eagle Medium (DMEM) supplemented with 10% fetal bovine serum (FBS), 1% L‐glutamine, and 1% penicillin‐streptomycin. Cells were maintained in an incubator at 37°C under 5% CO2.
(§2) MTT assay was used to determine the cytotoxic activity of the crude extract, subextracts, main fractions, and isolated compounds. MTT assay, called the “gold standard” of cell viability tests, is based on measuring metabolic activity. The cells reaching sufficient confluence were counted and plated in 96‐well plates (6 × 10^3 cells/well). After 24 h, cells were treated with five concentrations of the extracts (1–100 µg/mL), main fractions (1–100 µg/mL), or pure compounds (0.5–50 µM) in DMSO. Doxorubicin (10/3/1/0.3 µM) was used as a positive control. The plates were incubated with test materials for 48 h. After treatment, the supernatant was removed, and fresh medium and MTT solution (1 g/L in PBS) were added to each well. The cells were incubated for three h at 37°C. The resulting formazan crystals were dissolved in DMSO, and finally, the absorbance was detected at 570 nm using a spectrophotometer (SpectraMax i3x; Molecular Devices, San Jose, CA, USA). All data were collected from three independent experiments, and at least n = 6 data points were obtained. IC50 values were calculated as µg/mL for extracts or fractions and as µM for pure compounds.

[2] = system: Beas‐2B; assay: MTT cytotoxicity assay, Beas‐2B healthy cell line; format: cell-based, human; conditions: for IC50: Homo sapiens, BEAS-2B, 48 h, MTT, read-out: IC50 ± SEM, Beas‐2B
Experimental: as §1, §2

[3] = system: MCF‐7 cells; set-up: method as in earlier work; conditions: isolated from Sansevieria cylindrica; cited from earlier work
[4] = system: A549; assay: Selectivity index (IC50 non‐cancerous cells / IC50 cancerous cells); format: cell-based, human; conditions: IC50 Beas‐2B / IC50 A549
Experimental: The selectivity index (SI), which indicates the selectivity between cancer and normal cells, was calculated. The compounds with an SI greater than 1 are more likely to inhibit cancer cells than non‐cancerous cells. SI values were calculated by the formula of [(IC50 values of non‐cancerous cells)/(IC50 values of cancerous cells)].

[5] = isolated compounds 0.5–50 µM (Table 4)
[6] = doxorubicin positive control (Table 2 footnote)
[7] = doxorubicin positive control (Table 3 footnote)

| Structure (SMILES) | antiproliferative effect of isolated compounds (in words) [1] | IC50 [1, 5] [µM] | IC50 [2, 5] [µM] | also measured |
| --- | --- | --- | --- | --- |
| O=c1ccc2ccc(O)cc2o1 [Compound 2, umbelliferone] | did not show an antiproliferative effect; also recorded: did not show antiproliferative activity | > 50 | > 50 |  |
| COc1c(O)ccc(C(=O)C(CO)Cc2ccc3c(c2)OCO3)c1O (stereo not shown) [2′,4′‐dihydroxy‐3′‐methoxy‐3,4‐methylenedioxy‐8‐hydroxymethylene dihydrochalcone] |  |  |  | IC50, cytotoxic effect against MCF‐7 cells [3]: 34 µg/mL (≈ 98.2 µM) |
| COc1cccc2c1C(=O)c1c(O)c3c(c(O)c1C2=O)C[C@@](O)(C(=O)CO)C[C@@H]3O[C@H]1C[C@H](N)[C@H](O)[C@H](C)O1 [Dox, doxorubicin, reference compound] |  | 0.59 ± 0.05 | 0.07 ± 0.017 | SI (selectivity index) ([4]; Table 3): 0.12; IC50 [1, 6]: 0.82 ± 0.13 µM; IC50 [1, 7]: 0.59 ± 0.05 µM; IC50 [2, 6]: 0.34 ± 0.02 µM; IC50 [2, 7]: 0.07 ± 0.017 µM |
| CC(C)(O)[C@H]1Cc2cc3ccc(=O)oc3cc2O1 [Compound 4, nodakenetin] | did not show an antiproliferative effect; also recorded: did not show antiproliferative activity | > 50 | > 50 |  |
| O=C(O)c1cc2ccc(=O)oc2cc1O [Compound 1, umbelliferone 6‐carboxylic acid] | did not show an antiproliferative effect; also recorded: did not show antiproliferative activity | > 50 | > 50 |  |
| COc1cc(O)c(C(=O)C[C@H](O)c2ccc(O)c(CC=C(C)C)c2)c(O)c1 [Compound 3, 2',6'‐dihydroxy‐4'‐methoxy‐3''‐(ɤ,ɤ‐dimethylallyl)‐4''‐hydroxy β‐hydroxydihydrochalcone] | significant activity | 13.7 ± 0.8 | 12 ± 1.5 | SI (selectivity index) ([4]; Table 4): 0.87; cytotoxicity against normal cells compared with doxorubicin (in words) ([2]; normal cells (Beas‐2B)): lower cytotoxicity against normal cells than doxorubicin |
